Measured values taken from patent US5756546A (priority 1994, dated 1998).
Structures can show the parent of a compound that is named as a salt.

What was measured:
[1] = known salts in solution; cited from earlier work
[2] = whether or not linked with L-arginine

pH imposed in solution compared with the alkali metal salts (in words) [2]	SMILES	pH imposed in solution (in words) [1]
	CS(=O)(=O)Nc1ccc([N+](=O)[O-])cc1Oc1ccccc1 [sodium salt of nimesulide]	relatively alkaline pH
markedly less alkaline pH	CS(=O)(=O)Nc1ccc([N+](=O)[O-])cc1Oc1ccccc1 [nimesulide-L-lysine salt]	
